Results: patent US9365576B2, “Pyrrolopyrrolidinone compounds” (Novartis AG, priority 2012, dated 2016)

Molecular target: human MDM2 protein (amino acids 2-188) (Homo sapiens (Human), UniProt Q00987)
Assay: TR-FRET assay, p53-MDM2 Assay 2 (modified)
Format: binding
Conditions: TR-FRET; 0.1 nM MDM2, 0.1 nM Europium labeled streptavidin, Tecan genios Pro reader; read-out: IC50 p53-MDM2 Assay 2
Summary of the method: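 IC50 values were curve-fitted from the time-resolved 665/620 nm emission ratio after 340 nm excitation. The assay combined 0.625 nM europium-streptavidin donor with 1.25 nM C-terminally biotinylated MDM2 2–188 (15 min, RT), followed by 15 min with 10 nM Cy5-labeled p53 18–26 acceptor peptide.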

Sequence of human MDM2 protein (amino acids 2-188) (Q00987 2-188): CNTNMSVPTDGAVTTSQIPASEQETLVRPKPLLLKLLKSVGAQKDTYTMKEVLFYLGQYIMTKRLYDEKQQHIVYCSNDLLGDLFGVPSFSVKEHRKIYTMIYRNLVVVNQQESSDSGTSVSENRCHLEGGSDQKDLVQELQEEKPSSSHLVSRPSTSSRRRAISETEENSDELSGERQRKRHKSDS

Row | IC50 [nM] | Compound
1 | 0.316 | COc1nc(N(C)C)ncc1-c1cc2c(n1C(C)C)C(c1ccc(Cl)cc1)N(c1cc(Cl)ccc1C#N)C2=O (stereo not shown) [Example 100, 4-Chloro-2-[6-(4-chloro-phenyl)-2-(2-dimethylamino-4-methoxy-pyrimidin-5-yl)-1-isopropyl-4-oxo-4,6-dihydro-1H-pyrrolo[3,4-b]pyrrol-5-yl]-benzonitrile]
2 | 15.3 | COc1ccccc1-c1cc2c(n1C(C)C)C(c1ccc(Cl)cc1C)N(C1CCOCC1)C2=O (stereo not shown) [Example 104, 6-(4-Chloro-2-methyl-phenyl)-1-isopropyl-2-(2-methoxy-phenyl)-5-(tetrahydro-pyran-4-yl)-5,6-dihydro-1H-pyrrolo[3,4-b]pyrrol-4-one]
3 | 904 | COc1ncc(-c2cc3c(n2C(C)C)C(c2ccc(Cl)cc2)N(C2CCNCC2)C3=O)c(OC)n1 (stereo not shown) [Example 106, 6-(4-Chloro-phenyl)-2-(2,4-dimethoxy-pyrimidin-5-yl)-1-isopropyl-5-piperidin-4-yl-5,6-dihydro-1H-pyrrolo[3,4-b]pyrrol-4-one]
4 | 1.6 | COc1ncc(-c2cc3c(n2C(C)C)C(c2ccc(Cl)cc2)N(C2CCC(=O)N(C)C2)C3=O)c(OC)n1 (stereo not shown) [Example 109, 6-(4-Chloro-phenyl)-2-(2,4-dimethoxy-pyrimidin-5-yl)-1-isopropyl-5-(1-methyl-6-oxo-piperidin-3-yl)-5,6-dihydro-1H-pyrrolo[3,4-b]pyrrol-4-one]
5 | 0.741 | COc1ncc(-c2cc3c(n2C(C)C)C(c2ccc(Cl)cc2)N(C2CN(C)C(=O)N(C)C2)C3=O)c(OC)n1 (stereo not shown) [Example 110, 6-(4-Chloro-phenyl)-2-(2,4-dimethoxy-pyrimidin-5-yl)-5-(1,3-dimethyl-2-oxo-hexahydro-pyrimidin-5-yl)-1-isopropyl-5,6-dihydro-1H-pyrrolo[3,4-b]pyrrol-4-one]
6 | 1.84 | COc1ncc(-c2cc3c(n2C(C)C)C(c2ccc(Cl)cc2)N(c2cn(C)c(=O)cc2C)C3=O)c(OC)n1 (stereo not shown) [Example 111, 6-(4-Chloro-phenyl)-2-(2,4-dimethoxy-pyrimidin-5-yl)-5-(1,4-dimethyl-6-oxo-1,6-dihydro-pyridin-3-yl)-1-isopropyl-5,6-dihydro-1H-pyrrolo[3,4-b]pyrrol-4-one]
7 | 0.393 | COc1nc(N(C)C)ncc1-c1cc2c(n1C(C)C)C(c1ccc(Cl)cc1)N(c1cn(C)c(=O)cc1C)C2=O (stereo not shown) [Example 112, 6-(4-Chloro-phenyl)-2-(2-dimethylamino-4-methoxy-pyrimidin-5-yl)-5-(1,4-dimethyl-6-oxo-1,6-dihydro-pyridin-3-yl)-1-isopropyl-5,6-dihydro-1H-pyrrolo[3,4-b]pyrrol-4-one]
8 | 0.216 | COc1cccnc1-c1cc2c(n1C(C)C)C(c1ccc(Cl)cc1)N(c1cc(Cl)ccc1C)C2=O (stereo not shown) [Example 113, 5-(5-Chloro-2-methyl-phenyl)-6-(4-chloro-phenyl)-1-isopropyl-2-(3-methoxy-pyridin-2-yl)-5,6-dihydro-1H-pyrrolo[3,4-b]pyrrol-4-one]
9 | 0.184 | COc1ccc(S(C)(=O)=O)cc1-c1cc2c(n1C(C)C)C(c1ccc(Cl)cc1)N(c1cc(Cl)ccc1C)C2=O (stereo not shown) [Example 114, 5-(5-Chloro-2-methyl-phenyl)-6-(4-chloro-phenyl)-1-isopropyl-2-(5-methanesulfonyl-2-methoxy-phenyl)-5,6-dihydro-1H-pyrrolo[3,4-b]pyrrol-4-one]
10 | 0.485 | COc1ccccc1-c1c(F)c2c(n1C(C)C)C(c1ccc(Cl)cc1)N(c1cc(Cl)ccc1C)C2=O (stereo not shown) [Example 115, 5-(5-Chloro-2-methyl-phenyl)-6-(4-chloro-phenyl)-3-fluoro-1-isopropyl-2-(2-methoxy-phenyl)-5,6-dihydro-1H-pyrrolo[3,4-b]pyrrol-4-one]
11 | 0.496 | COc1ccccc1-c1cc2c(n1C(C)C)C(C)(c1ccc(Cl)cc1)N(c1cc(Cl)ccc1C)C2=O (stereo not shown) [Example 116, 5-(5-Chloro-2-methyl-phenyl)-6-(4-chloro-phenyl)-1-isopropyl-2-(2-methoxy-phenyl)-6-methyl-5,6-dihydro-1H-pyrrolo[3,4-b]pyrrol-4-one]
12 | 0.208 | COc1ncc(-c2cc3c(n2C(C)C)C(C)(c2ccc(Cl)cc2)N(c2cc(Cl)c(=O)n(C)c2)C3=O)c(OC)n1 (stereo not shown) [Example 117, 5-(5-Chloro-1-methyl-6-oxo-1,6-dihydro-pyridin-3-yl)-6-(4-chloro-phenyl)-2-(2,4-dimethoxy-pyrimidin-5-yl)-1-isopropyl-6-methyl-5,6-dihydro-1H-pyrrolo[3,4-b]pyrrol-4-one]
13 | 0.311 | COc1ccc(CC(=O)O)cc1-c1cc2c(n1C(C)C)C(c1ccc(Cl)cc1)N(c1cc(Cl)c(=O)n(C)c1)C2=O (stereo not shown) [Example 118, {3-[5-(5-Chloro-1-methyl-6-oxo-1,6-dihydro-pyridin-3-yl)-6-(4-chloro-phenyl)-1-isopropyl-4-oxo-1,4,5,6-tetrahydro-pyrrolo[3,4-b]pyrrol-2-yl]-4-methoxy-phenyl}-acetic acid]
14 | 0.168 | COc1ccc(S(C)(=O)=O)cc1-c1cc2c(n1C(C)C)C(c1ccc(Cl)cc1)N(c1cc(Cl)c(=O)n(C)c1)C2=O (stereo not shown) [Example 119, 5-(5-Chloro-1-methyl-6-oxo-1,6-dihydro-pyridin-3-yl)-6-(4-chloro-phenyl)-1-isopropyl-2-(5-methanesulfonyl-2-methoxy-phenyl)-5,6-dihydro-1H-pyrrolo[3,4-b]pyrrol-4-one]
15 | 0.167 | COc1ncc(-c2c(C#N)c3c(n2C(C)C)C(c2ccc(Cl)cc2)N(c2cc(Cl)c(=O)n(C)c2)C3=O)c(OC)n1 (stereo not shown) [Example 120, 5-(5-Chloro-1-methyl-6-oxo-1,6-dihydro-pyridin-3-yl)-6-(4-chloro-phenyl)-2-(2,4-dimethoxy-pyrimidin-5-yl)-1-isopropyl-4-oxo-1,4,5,6-tetrahydro-pyrrolo[3,4-b]pyrrole-3-carbonitrile]
16 | 76.9 | COc1ncc(-c2cc3c(n2C(C)C)[C@@H](c2ccc(Cl)cc2)N(c2cc(Cl)c(=O)n(C)c2)C3=O)c(OC)n1 [Example 122, (R)-5-(5-Chloro-1-methyl-6-oxo-1,6-dihydro-pyridin-3-yl)-6-(4-chloro-phenyl)-2-(2,4-dimethoxy-pyrimidin-5-yl)-1-isopropyl-5,6-dihydro-1H-pyrrolo[3,4-b]pyrrol-4-one]
17 | 0.106 | COc1nc(N(C)C)ncc1-c1cc2c(n1C(C)C)C(c1ccc(Cl)cc1)N(c1cc(Cl)c[nH]c1=O)C2=O (stereo not shown) [Example 123, 5-(5-Chloro-2-oxo-1,2-dihydro-pyridin-3-yl)-6-(4-chloro-phenyl)-2-(2-dimethylamino-4-methoxy-pyrimidin-5-yl)-1-isopropyl-5,6-dihydro-1H-pyrrolo[3,4-b]pyrrol-4-one]
18 | 0.185 | CNc1ncc(-c2cc3c(n2C(C)C)C(c2ccc(Cl)cc2)N(c2cc(Cl)c[nH]c2=O)C3=O)c(OC)n1 (stereo not shown) [Example 124, 5-(5-Chloro-2-oxo-1,2-dihydro-pyridin-3-yl)-6-(4-chloro-phenyl)-1-isopropyl-2-(4-methoxy-2-methylamino-pyrimidin-5-yl)-5,6-dihydro-1H-pyrrolo[3,4-b]pyrrol-4-one]
19 | 3.22 | COc1nc(N)ncc1-c1cc2c(n1C(C)C)C(c1ccc(C#N)cc1)N(c1cc(Cl)c[nH]c1=O)C2=O (stereo not shown) [Example 125, 4-[2-(2-Amino-4-methoxy-pyrimidin-5-yl)-5-(5-chloro-2-oxo-1,2-dihydro-pyridin-3-yl)-1-isopropyl-4-oxo-1,4,5,6-tetrahydro-pyrrolo[3,4-b]pyrrol-6-yl]-benzonitrile]
20 | 0.779 | COc1ncc(-c2cc3c(n2C(C)C)C(c2ccc(C#N)cc2)N(c2cc(Cl)c[nH]c2=O)C3=O)c(OC)n1 (stereo not shown) [Example 126, 4-[5-(5-Chloro-2-oxo-1,2-dihydro-pyridin-3-yl)-2-(2,4-dimethoxy-pyrimidin-5-yl)-1-isopropyl-4-oxo-1,4,5,6-tetrahydro-pyrrolo[3,4-b]pyrrol-6-yl]-benzonitrile]
21 | 0.359 | COc1nc(N(C)C)ncc1-c1cc2c(n1C(C)C)C(c1ccc(C#N)cc1)N(c1cc(Cl)c[nH]c1=O)C2=O (stereo not shown) [Example 127, 4-[5-(5-Chloro-2-oxo-1,2-dihydro-pyridin-3-yl)-2-(2-dimethylamino-4-methoxy-pyrimidin-5-yl)-1-isopropyl-4-oxo-1,4,5,6-tetrahydro-pyrrolo[3,4-b]pyrrol-6-yl]-benzonitrile]
22 | 0.527 | CNc1ncc(-c2cc3c(n2C(C)C)C(c2ccc(C#N)cc2)N(c2cc(Cl)c[nH]c2=O)C3=O)c(OC)n1 (stereo not shown) [Example 128, 4-[5-(5-Chloro-2-oxo-1,2-dihydro-pyridin-3-yl)-1-isopropyl-2-(4-methoxy-2-methylamino-pyrimidin-5-yl)-4-oxo-1,4,5,6-tetrahydro-pyrrolo[3,4-b]pyrrol-6-yl]-benzonitrile]
23 | 5.66 | COc1nc(N)ncc1-c1cc2c(n1C(C)C)C(c1ccc(C#N)cc1)N(c1cc(Cl)cn(C)c1=O)C2=O (stereo not shown) [Example 129, 4-[2-(2-Amino-4-methoxy-pyrimidin-5-yl)-5-(5-chloro-1-methyl-2-oxo-1,2-dihydro-pyridin-3-yl)-1-isopropyl-4-oxo-1,4,5,6-tetrahydro-pyrrolo[3,4-b]pyrrol-6-yl]-benzonitrile]
24 | 1.08 | CNc1ncc(-c2cc3c(n2C(C)C)C(c2ccc(C#N)cc2)N(c2cc(Cl)cn(C)c2=O)C3=O)c(OC)n1 (stereo not shown) [Example 130, 4-[5-(5-Chloro-1-methyl-2-oxo-1,2-dihydro-pyridin-3-yl)-1-isopropyl-2-(4-methoxy-2-methylamino-pyrimidin-5-yl)-4-oxo-1,4,5,6-tetrahydro-pyrrolo[3,4-b]pyrrol-6-yl]-benzonitrile]
25 | 0.295 | COc1nc(N(C)C)ncc1-c1cc2c(n1C(C)C)C(c1ccc(C#N)cc1)N(c1cc(Cl)cn(C)c1=O)C2=O (stereo not shown) [Example 131, 4-[5-(5-Chloro-1-methyl-2-oxo-1,2-dihydro-pyridin-3-yl)-2-(2-dimethylamino-4-methoxy-pyrimidin-5-yl)-1-isopropyl-4-oxo-1,4,5,6-tetrahydro-pyrrolo[3,4-b]pyrrol-6-yl]-benzonitrile]
